{"source": "paper PMC9511441", "about": "“Semisynthetic teicoplanin derivatives with dual antimicrobial activity against SARS-CoV-2 and multiresistant bacteria” (Scientific Reports, 2022)", "key": {"[1]": {"system": "VeroE6 cells", "experiment": "Cytotoxicity in mock-infected VeroE6 cells (XTT)", "type": "cell-based, African green monkey", "settings": "mock-infected Vero E6 cells, three days, XTT"}, "[2]": {"system": "HCoV-229E", "experiment": "CPE reduction assay, HCoV-229E in HEL cells", "type": "cell-based"}, "[3]": {"system": "HEL cells", "experiment": "Cytotoxicity in mock-infected HEL cells (MTS)", "type": "cell-based, human", "settings": "mock-infected HEL cells, MTS, mean of 2–3 tests"}, "[4]": {"system": "SARS-CoV-2 pseudovirus", "experiment": "microbe, parasite or virus in culture", "type": "cell-based", "settings": "cathepsin-dependent endosomal pathway"}, "[5]": {"target": "T1, human recombinant cathepsin L (Homo sapiens, UniProt P07711)", "T1 construct": "made in house; host or cells: Escherichia coli", "T1 sequence (P07711 114-333)": "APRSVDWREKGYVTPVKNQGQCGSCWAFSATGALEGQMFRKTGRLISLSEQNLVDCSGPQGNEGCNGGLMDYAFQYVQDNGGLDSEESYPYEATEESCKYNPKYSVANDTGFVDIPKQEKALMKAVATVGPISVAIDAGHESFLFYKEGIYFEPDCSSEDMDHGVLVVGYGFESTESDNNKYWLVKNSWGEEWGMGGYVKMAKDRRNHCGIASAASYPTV", "experiment": "biochemical", "type": "biochemical"}, "[6]": {"system": "E. faecalis", "experiment": "MIC, broth microdilution", "type": "cell-based", "settings": "Enterococcus faecalis"}, "[7]": {"system": "S. aureus", "experiment": "MIC, broth microdilution", "type": "cell-based", "settings": "Staphylococcus aureus"}, "[8]": {"system": "S. haemolyticus", "experiment": "MIC, broth microdilution", "type": "cell-based", "settings": "Staphylococcus haemolyticus"}, "[9]": {"system": "S.pyogenes", "experiment": "MIC, broth microdilution", "type": "cell-based", "settings": "Streptococcus pyogenes"}, "[10]": {"system": "E. faecium", "experiment": "microbe, parasite or virus in culture", "type": "cell-based", "settings": "for MIC: Enterococcus faecium"}, "[11]": {"system": "S. epidermidis", "experiment": "microbe, parasite or virus in culture", "type": "cell-based", "settings": "Staphylococcus epidermidis"}, "[12]": {"system": "S. aureus ATCC29213", "experiment": "Fluorescent competition assay, release of fluorescent teicoplanin", "type": "binding", "settings": "cells saturated with FL-TEI, Fig. 7 right panel"}, "[13]": {"system": "Klebsiella pneumoniae ST258 clone K 160/09", "experiment": "MIC against Gram-negative strain", "settings": "Klebsiella pneumoniae"}, "[14]": {"system": "Pseudomonas aeruginosa ATCC 27853", "experiment": "MIC against Gram-negative strain", "settings": "ATCC27853"}, "[15]": {"system": "Acinetobacter baumannii ATCC BAA1605", "experiment": "MIC against Gram-negative strain", "settings": "Acinetobacter baumannii, ATCCBAA1605"}, "[16]": {"system": "Escherichia coli ATCC 25218", "experiment": "MIC against Gram-negative strain", "settings": "ATCC25218"}, "[17]": {"system": "Calu-3 cells", "experiment": "Cytotoxicity in mock-infected Calu-3 cells (XTT)", "settings": "read-out: CC50, Calu-3 cells, three days"}, "[18]": {"system": "S. aureus ATCC29213", "experiment": "Fluorescent competition assay, release of fluorescent vancomycin", "settings": "cells saturated with FL-VAN, Fig. 7 left panel"}}, "note": "Like-named read-outs stand apart in the source and are kept apart here."}
{"smiles": "CC(=O)N[C@H]1[C@H](O[C@@H]2c3ccc(c(Cl)c3)Oc3cc4cc(c3O)Oc3ccc(cc3Cl)C[C@H]3NC(=O)[C@H](NC(=N)N)c5ccc(O)c(c5)Oc5cc(O)cc(c5)[C@H](NC3=O)C(=O)N[C@H]4C(=O)N[C@H]3C(=O)N[C@@H]2C(=O)N[C@H](C(=O)O)c2cc(O)cc(O)c2-c2cc3ccc2O)O[C@H](CO)[C@@H](O)[C@@H]1O", "note": "[Compound 6]", "values": [{"measurement": "CC50", "setting": "[1]", "value": "> 100", "unit": "µM"}, {"measurement": "Activity against HCoV-229E CPE (in words)", "setting": "[2]", "value": "only modest activity"}, {"measurement": "CC50", "setting": "[3]", "value": "> 100", "unit": "µM"}, {"measurement": "Inhibition of pseudovirus entry in Vero cells (in words)", "setting": "[4]", "value": "moderately active"}, {"measurement": "Cathepsin L inhibition (in words)", "setting": "[5]", "value": "did not prove to be an inhibitor"}, {"measurement": "IC50", "setting": "[5]; read-out: Cathepsin L IC50, pH 5.5, Z-Phe-Arg-AMC substrate", "value": "> 500", "unit": "µM"}, {"measurement": "MIC", "setting": "[6]; read-out: Average MIC value, E. faecalis VAN^R,TEI^R/VanA, 1 strain", "value": 0.125, "unit": "µg/mL"}, {"measurement": "MIC", "setting": "[6]; read-out: Average MIC value, E. faecalis VAN^S, TEI^S, 2 strains", "value": 0.125, "unit": "µg/mL"}, {"measurement": "MIC", "setting": "[6]; read-out: MIC value, E.faecalis JH2-2", "value": 0.125, "unit": "µg/mL"}, {"measurement": "MIC", "setting": "[6]; read-out: MIC value, E.faecalis OG1RF", "value": 0.125, "unit": "µg/mL"}, {"measurement": "MIC", "setting": "[6]; read-out: MIC value, E.faecalis V583, VAN,TEI/VanA", "value": 0.125, "unit": "µg/mL"}, {"measurement": "MIC", "setting": "[7]; ATCC 29213 / MSSA, read-out: MIC value, S. aureus ATCC29213, MSSA", "value": 0.25, "unit": "µg/mL"}, {"measurement": "MIC", "setting": "[7]; MRSA / USA300, read-out: MIC value, S. aureus USA300, CA-MRSA", "value": 0.125, "unit": "µg/mL"}, {"measurement": "MIC", "setting": "[7]; MRSA, read-out: Average MIC value, S. aureus CA-MRSA, 1 strain", "value": 0.125, "unit": "µg/mL"}, {"measurement": "MIC", "setting": "[7]; MRSA, read-out: Average MIC value, S. aureus MRSA, 7 strains", "value": 0.125, "unit": "µg/mL"}, {"measurement": "MIC", "setting": "[7]; MRSA, read-out: MIC value, S. aureus 73OL, MRSA", "value": 0.125, "unit": "µg/mL"}, {"measurement": "MIC", "setting": "[7]; MRSA, read-out: MIC value, S. aureus 214OL, MRSA", "value": 0.125, "unit": "µg/mL"}, {"measurement": "MIC", "setting": "[7]; MRSA, read-out: MIC value, S. aureus 1041OL, MRSA", "value": 0.125, "unit": "µg/mL"}, {"measurement": "MIC", "setting": "[7]; MRSA, read-out: MIC value, S. aureus A6918, MRSA", "value": 0.125, "unit": "µg/mL"}, {"measurement": "MIC", "setting": "[7]; MRSA, read-out: MIC value, S. aureus A6919, MRSA", "value": 0.125, "unit": "µg/mL"}, {"measurement": "MIC", "setting": "[7]; MRSA, read-out: MIC value, S. aureus Mu50, MRSA", "value": 0.125, "unit": "µg/mL"}, {"measurement": "MIC", "setting": "[7]; MRSA, read-out: MIC value, S. aureus N315, MRSA", "value": 0.125, "unit": "µg/mL"}, {"measurement": "MIC", "setting": "[7]; MSSA / NEWMAN, read-out: MIC value, S. aureus Newman, MSSA", "value": 0.25, "unit": "µg/mL"}, {"measurement": "MIC", "setting": "[7]; MSSA, read-out: Average MIC value, S. aureus MSSA, 4 strains", "value": 0.188, "unit": "µg/mL"}, {"measurement": "MIC", "setting": "[7]; MSSA, read-out: MIC value, S. aureus MSSA476, MSSA", "value": 0.125, "unit": "µg/mL"}, {"measurement": "MIC", "setting": "[7]; MSSA, read-out: MIC value, S. aureus SA564, MSSA", "value": 0.125, "unit": "µg/mL"}, {"measurement": "MIC", "setting": "[8]; S. haemolyticus mecA, 6 strains, read-out: Average MIC value", "value": 0.27, "unit": "µg/mL"}, {"measurement": "MIC", "setting": "[8]; S.haemolyticus DALB_R1, mecA, read-out: MIC value", "value": 0.5, "unit": "µg/mL"}, {"measurement": "MIC", "setting": "[8]; S.haemolyticus DALB_R2, mecA, read-out: MIC value", "value": 0.25, "unit": "µg/mL"}, {"measurement": "MIC", "setting": "[8]; S.haemolyticus DALB_R3, mecA, read-out: MIC value", "value": 0.25, "unit": "µg/mL"}, {"measurement": "MIC", "setting": "[8]; S.haemolyticus DALB_R4, mecA, read-out: MIC value", "value": 0.125, "unit": "µg/mL"}, {"measurement": "MIC", "setting": "[8]; S.haemolyticus DALB_R5, mecA, read-out: MIC value", "value": 0.25, "unit": "µg/mL"}, {"measurement": "MIC", "setting": "[8]; S.haemolyticus ORI_R1, mecA, read-out: MIC value", "value": 0.25, "unit": "µg/mL"}, {"measurement": "MIC", "setting": "[9]; read-out: MIC value, S.pyogenes H232", "value": 0.125, "unit": "µg/mL"}, {"measurement": "MIC", "setting": "[9]; read-out: MIC value, S.pyogenes H550", "value": 0.125, "unit": "µg/mL"}, {"measurement": "MIC", "setting": "[9]; read-out: MIC value, S.pyogenes H578", "value": 0.125, "unit": "µg/mL"}, {"measurement": "MIC", "setting": "[10]; read-out: Average MIC value, E. faecium VAN^R,TEI^R/VanA, 8 strains", "value": 0.156, "unit": "µg/mL"}, {"measurement": "MIC", "setting": "[10]; read-out: Average MIC value, E. faecium VAN^S, TEI^S, 1 strain", "value": 0.0625, "unit": "µg/mL"}, {"measurement": "MIC", "setting": "[10]; read-out: MIC value, E.faecium E335, VAN,TEI,LNZ/VanA", "value": 0.125, "unit": "µg/mL"}, {"measurement": "MIC", "setting": "[10]; read-out: MIC value, E.faecium E355, VAN,TEI,LNZ/VanA", "value": 0.125, "unit": "µg/mL"}, {"measurement": "MIC", "setting": "[10]; read-out: MIC value, E.faecium E832, VAN,TEI,LNZ/VanA", "value": 0.125, "unit": "µg/mL"}, {"measurement": "MIC", "setting": "[10]; read-out: MIC value, E.faecium E854, VAN,TEI,LNZ/VanA", "value": 0.125, "unit": "µg/mL"}, {"measurement": "MIC", "setting": "[10]; read-out: MIC value, E.faecium E859, VAN,TEI,LNZ/VanA", "value": 0.125, "unit": "µg/mL"}, {"measurement": "MIC", "setting": "[10]; read-out: MIC value, E.faecium E1114, VAN,TEI,LNZ/VanA", "value": 0.5, "unit": "µg/mL"}, {"measurement": "MIC", "setting": "[10]; read-out: MIC value, E.faecium E1131, VAN,TEI,LNZ/VanA", "value": 0.0625, "unit": "µg/mL"}, {"measurement": "MIC", "setting": "[10]; read-out: MIC value, E.faecium E1132, VAN,TEI,LNZ/VanA", "value": 0.0625, "unit": "µg/mL"}, {"measurement": "MIC", "setting": "[10]; read-out: MIC value, E.faecium TX0016", "value": 0.0625, "unit": "µg/mL"}, {"measurement": "Activity against E. faecium strains expressing the VanA resistance phenotype (in words)", "setting": "[10]; VanA phenotype", "value": "strong activity"}, {"measurement": "MIC", "setting": "[11]; read-out: Average MIC value, S. epidermidis mecA, 6 strains", "value": 0.1, "unit": "µg/mL"}, {"measurement": "MIC", "setting": "[11]; read-out: MIC value, S.epidermidis ORI_R1, mecA", "value": 0.0625, "unit": "µg/mL"}, {"measurement": "MIC", "setting": "[11]; read-out: MIC value, S.epidermidis ORI_R2, mecA", "value": 0.125, "unit": "µg/mL"}, {"measurement": "MIC", "setting": "[11]; read-out: MIC value, S.epidermidis ORI_R3, mecA", "value": 0.0625, "unit": "µg/mL"}, {"measurement": "MIC", "setting": "[11]; read-out: MIC value, S.epidermidis ORI_R4, mecA", "value": 0.0625, "unit": "µg/mL"}, {"measurement": "MIC", "setting": "[11]; read-out: MIC value, S.epidermidis TEI_R1, mecA", "value": 0.0625, "unit": "µg/mL"}, {"measurement": "MIC", "setting": "[11]; read-out: MIC value, S.epidermidis TEI_R2, mecA", "value": 0.25, "unit": "µg/mL"}, {"measurement": "Outcompeting fluorescent teicoplanin from S. aureus (in words)", "setting": "[12]", "value": "the most active competitor"}, {"measurement": "MIC", "setting": "[13]", "value": 128, "unit": "µg/mL"}, {"measurement": "MIC", "setting": "[14]", "value": 256, "unit": "µg/mL"}, {"measurement": "MIC", "setting": "[15]", "value": 128, "unit": "µg/mL"}, {"measurement": "MIC", "setting": "[16]", "value": 128, "unit": "µg/mL"}, {"measurement": "CC50", "setting": "[17]", "value": "> 100", "unit": "µM"}, {"measurement": "Outcompeting fluorescent vancomycin from S. aureus (in words)", "setting": "[18]", "value": "highly effective at outcompeting fluorescent vancomycin"}]}
